Data: ChEMBL document CHEMBL1201862, “PubChem BioAssay data set” (2004)
Calls of active or inactive are those of the source.

Columns and labels:
[1] = target: T1, Sentrin-specific protease 7 (Homo sapiens, UniProt Q9BQF6); type: functional;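 also: Luminescence-based dose-response confirmation of ultra-high-throughput screening hits, measuring inhibition of SENP7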
T1 sequence (Q9BQF6 whole entry): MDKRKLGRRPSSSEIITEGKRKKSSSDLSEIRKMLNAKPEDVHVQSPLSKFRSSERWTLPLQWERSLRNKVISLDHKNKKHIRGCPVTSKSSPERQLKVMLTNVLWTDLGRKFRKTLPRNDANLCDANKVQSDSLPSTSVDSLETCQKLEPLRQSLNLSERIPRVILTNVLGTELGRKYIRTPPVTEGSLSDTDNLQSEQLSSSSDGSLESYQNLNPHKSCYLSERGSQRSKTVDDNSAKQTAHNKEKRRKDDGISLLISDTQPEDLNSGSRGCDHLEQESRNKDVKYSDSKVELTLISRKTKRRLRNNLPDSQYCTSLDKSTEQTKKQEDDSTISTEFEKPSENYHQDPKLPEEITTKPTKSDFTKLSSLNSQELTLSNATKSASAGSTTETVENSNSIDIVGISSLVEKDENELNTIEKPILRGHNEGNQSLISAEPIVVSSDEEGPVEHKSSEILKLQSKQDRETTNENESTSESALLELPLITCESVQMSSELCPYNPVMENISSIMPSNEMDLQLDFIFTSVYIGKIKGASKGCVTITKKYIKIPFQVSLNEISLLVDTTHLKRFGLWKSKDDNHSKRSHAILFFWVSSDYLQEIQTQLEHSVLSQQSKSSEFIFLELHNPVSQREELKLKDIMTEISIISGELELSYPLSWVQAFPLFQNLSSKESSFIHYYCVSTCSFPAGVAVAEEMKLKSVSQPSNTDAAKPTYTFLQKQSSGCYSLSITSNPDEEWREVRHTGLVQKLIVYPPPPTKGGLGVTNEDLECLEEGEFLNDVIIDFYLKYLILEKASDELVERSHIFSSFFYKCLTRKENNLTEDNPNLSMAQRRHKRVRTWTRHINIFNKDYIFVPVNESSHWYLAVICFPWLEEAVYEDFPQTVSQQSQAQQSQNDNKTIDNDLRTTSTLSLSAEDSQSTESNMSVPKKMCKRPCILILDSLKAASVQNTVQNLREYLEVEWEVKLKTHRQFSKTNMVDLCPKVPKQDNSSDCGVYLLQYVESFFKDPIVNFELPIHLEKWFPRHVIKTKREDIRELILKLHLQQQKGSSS

[2] = target: T2, Sentrin-specific protease 8 (Homo sapiens, UniProt Q96LD8); type: functional;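 also: luminescence read-out of SENP8 inhibition, dose-response confirmation following an ultra-high-throughput screen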
T2 sequence (Q96LD8 whole entry): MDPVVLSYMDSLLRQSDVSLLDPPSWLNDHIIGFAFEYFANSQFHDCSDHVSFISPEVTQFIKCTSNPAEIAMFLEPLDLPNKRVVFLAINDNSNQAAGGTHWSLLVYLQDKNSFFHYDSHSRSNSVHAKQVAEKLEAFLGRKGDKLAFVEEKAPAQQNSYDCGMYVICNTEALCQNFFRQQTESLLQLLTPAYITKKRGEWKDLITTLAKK

Caspase-3 = target: T3, Caspase-3 (Homo sapiens, UniProt P42574); type: functional;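 also: Dose-response selectivity test against caspase-3 for candidate inhibitors of sentrin-specific proteases (SENPs)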
T3 sequence (P42574 whole entry): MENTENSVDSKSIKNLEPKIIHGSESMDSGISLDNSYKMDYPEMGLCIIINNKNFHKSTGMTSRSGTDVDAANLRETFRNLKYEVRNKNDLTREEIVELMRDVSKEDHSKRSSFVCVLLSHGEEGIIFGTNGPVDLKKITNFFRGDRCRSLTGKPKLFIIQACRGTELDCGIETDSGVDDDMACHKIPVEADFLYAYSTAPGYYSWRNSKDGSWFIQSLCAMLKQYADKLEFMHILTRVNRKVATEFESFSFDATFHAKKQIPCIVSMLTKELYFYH

[3] = target: T4, Sentrin-specific protease 6 (Homo sapiens, UniProt Q9GZR1); type: functional;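 also: Luminescence-based dose-response confirmatory assay of SENP6 inhibition, following up an ultra-high-throughput screen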
T4 sequence (Q9GZR1 whole entry): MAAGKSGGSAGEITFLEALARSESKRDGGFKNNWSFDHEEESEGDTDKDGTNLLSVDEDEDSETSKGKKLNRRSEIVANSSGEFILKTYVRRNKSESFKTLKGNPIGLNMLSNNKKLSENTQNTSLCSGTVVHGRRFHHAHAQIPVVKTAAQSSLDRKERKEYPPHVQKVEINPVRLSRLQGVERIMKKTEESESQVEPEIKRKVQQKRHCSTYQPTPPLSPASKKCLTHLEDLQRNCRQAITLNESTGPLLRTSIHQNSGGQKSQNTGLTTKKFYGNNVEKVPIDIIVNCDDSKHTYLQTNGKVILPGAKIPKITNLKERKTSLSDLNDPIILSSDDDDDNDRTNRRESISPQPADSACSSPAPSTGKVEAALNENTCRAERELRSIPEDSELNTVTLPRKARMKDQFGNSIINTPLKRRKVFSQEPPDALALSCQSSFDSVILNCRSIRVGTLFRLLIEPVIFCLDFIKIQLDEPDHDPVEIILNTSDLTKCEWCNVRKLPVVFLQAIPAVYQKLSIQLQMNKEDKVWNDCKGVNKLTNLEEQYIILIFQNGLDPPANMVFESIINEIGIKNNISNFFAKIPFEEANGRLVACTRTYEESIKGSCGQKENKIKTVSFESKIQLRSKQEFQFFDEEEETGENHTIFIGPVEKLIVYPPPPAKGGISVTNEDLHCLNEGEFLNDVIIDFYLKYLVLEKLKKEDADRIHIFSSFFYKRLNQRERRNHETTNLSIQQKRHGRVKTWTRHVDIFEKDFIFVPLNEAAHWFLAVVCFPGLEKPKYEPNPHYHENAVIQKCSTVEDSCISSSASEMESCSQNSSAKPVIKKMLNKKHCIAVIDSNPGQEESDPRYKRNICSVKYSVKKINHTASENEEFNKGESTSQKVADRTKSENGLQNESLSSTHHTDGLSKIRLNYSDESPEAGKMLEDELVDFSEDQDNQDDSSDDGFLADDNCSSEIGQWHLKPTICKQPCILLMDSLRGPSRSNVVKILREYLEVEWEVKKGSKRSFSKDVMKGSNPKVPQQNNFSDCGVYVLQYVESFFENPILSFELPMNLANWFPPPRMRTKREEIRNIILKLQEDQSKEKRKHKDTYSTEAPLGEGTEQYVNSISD

[4] = target: T5, Low molecular weight phosphotyrosine protein phosphatase (Homo sapiens, UniProt P24666); type: functional; settings: read-out: IC50_Mean;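 also: Dose-response confirmation assay measuring inhibition of LMPTP enzyme activity by fluorescence intensity read-out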
T5 sequence (P24666 whole entry): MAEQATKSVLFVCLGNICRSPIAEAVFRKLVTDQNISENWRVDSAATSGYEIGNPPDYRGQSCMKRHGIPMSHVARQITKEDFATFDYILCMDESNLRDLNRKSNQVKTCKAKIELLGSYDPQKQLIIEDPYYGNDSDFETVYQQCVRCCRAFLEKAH

[5] = target: DNA (cytosine-5)-methyltransferase 1 (Homo sapiens, UniProt P26358); test: DNMT1 methyltransferase inhibitors, confirmation, biochemical, fluorescent molecular beacon (AID 602386); type: functional
Sequence of DNA (cytosine-5)-methyltransferase 1 (P26358 whole entry): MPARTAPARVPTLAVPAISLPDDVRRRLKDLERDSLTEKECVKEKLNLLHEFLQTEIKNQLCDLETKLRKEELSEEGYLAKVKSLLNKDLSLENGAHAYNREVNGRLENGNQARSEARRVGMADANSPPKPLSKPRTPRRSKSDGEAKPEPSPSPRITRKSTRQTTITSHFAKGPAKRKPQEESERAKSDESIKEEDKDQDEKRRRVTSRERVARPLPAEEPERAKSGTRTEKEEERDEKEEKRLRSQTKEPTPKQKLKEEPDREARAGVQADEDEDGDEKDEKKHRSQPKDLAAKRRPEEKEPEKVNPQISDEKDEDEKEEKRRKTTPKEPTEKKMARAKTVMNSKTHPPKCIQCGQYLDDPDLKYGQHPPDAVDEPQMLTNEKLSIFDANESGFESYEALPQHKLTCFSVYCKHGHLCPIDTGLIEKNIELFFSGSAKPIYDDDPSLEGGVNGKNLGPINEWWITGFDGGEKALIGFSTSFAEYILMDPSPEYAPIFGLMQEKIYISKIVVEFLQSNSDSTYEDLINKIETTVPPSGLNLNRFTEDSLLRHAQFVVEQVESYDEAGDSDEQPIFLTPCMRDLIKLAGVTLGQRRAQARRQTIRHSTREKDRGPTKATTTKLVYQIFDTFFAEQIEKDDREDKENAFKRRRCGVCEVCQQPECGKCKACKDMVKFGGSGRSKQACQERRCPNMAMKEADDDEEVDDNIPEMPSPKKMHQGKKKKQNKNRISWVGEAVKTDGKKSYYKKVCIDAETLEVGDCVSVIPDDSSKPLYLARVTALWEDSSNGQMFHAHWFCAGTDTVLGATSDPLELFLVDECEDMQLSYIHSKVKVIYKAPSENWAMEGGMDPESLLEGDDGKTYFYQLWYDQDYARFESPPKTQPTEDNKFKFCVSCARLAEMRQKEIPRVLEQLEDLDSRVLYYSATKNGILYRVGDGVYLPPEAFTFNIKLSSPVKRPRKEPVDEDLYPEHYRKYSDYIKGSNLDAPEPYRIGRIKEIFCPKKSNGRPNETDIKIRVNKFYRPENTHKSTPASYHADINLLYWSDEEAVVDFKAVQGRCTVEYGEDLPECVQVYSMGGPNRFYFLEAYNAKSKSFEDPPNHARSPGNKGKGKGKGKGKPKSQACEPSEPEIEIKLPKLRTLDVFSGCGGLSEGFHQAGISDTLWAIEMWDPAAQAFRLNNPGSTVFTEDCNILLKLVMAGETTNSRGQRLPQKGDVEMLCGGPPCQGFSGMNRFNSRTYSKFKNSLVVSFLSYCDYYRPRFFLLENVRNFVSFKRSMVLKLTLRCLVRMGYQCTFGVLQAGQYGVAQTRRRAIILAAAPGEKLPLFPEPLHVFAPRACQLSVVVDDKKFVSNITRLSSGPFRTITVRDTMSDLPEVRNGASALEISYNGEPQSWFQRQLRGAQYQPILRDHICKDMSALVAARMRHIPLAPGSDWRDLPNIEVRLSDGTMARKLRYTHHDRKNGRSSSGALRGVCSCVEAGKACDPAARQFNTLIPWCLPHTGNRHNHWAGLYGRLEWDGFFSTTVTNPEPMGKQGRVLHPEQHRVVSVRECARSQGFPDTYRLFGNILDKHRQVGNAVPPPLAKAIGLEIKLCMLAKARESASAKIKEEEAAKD

[6] = target: 72 kDa type IV collagenase (Homo sapiens, UniProt P08253); test: Dose Response validation of uHTS RPN11 inhibitor hits using a MMP-2 Fluorescence assay.; type: functional
Sequence of 72 kDa type IV collagenase (P08253 whole entry): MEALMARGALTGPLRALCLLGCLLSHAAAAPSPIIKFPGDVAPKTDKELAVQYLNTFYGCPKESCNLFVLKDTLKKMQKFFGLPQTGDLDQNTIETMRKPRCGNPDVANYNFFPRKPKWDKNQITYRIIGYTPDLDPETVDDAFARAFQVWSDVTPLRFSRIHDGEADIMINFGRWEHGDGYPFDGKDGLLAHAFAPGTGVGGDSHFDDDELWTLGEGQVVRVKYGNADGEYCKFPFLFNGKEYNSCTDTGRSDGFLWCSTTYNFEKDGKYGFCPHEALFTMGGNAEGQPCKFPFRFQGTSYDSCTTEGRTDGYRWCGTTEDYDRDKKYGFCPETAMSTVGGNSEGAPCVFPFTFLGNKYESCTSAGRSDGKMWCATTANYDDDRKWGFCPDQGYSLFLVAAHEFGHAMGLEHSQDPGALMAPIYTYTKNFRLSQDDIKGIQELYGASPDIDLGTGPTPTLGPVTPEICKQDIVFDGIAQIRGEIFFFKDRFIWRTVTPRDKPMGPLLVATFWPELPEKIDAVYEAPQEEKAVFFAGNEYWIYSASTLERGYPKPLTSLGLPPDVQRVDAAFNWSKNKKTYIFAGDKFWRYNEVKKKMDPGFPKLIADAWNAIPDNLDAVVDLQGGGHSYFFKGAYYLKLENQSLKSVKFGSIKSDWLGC

[7] = target: 26S proteasome non-ATPase regulatory subunit 14 (Homo sapiens, UniProt O00487); test: inhibition of proteasome subunit RPN11 – biochemical, fluorescence polarization, uHTS hits, confirmation (AID 602368); type: functional
Sequence of 26S proteasome non-ATPase regulatory subunit 14 (O00487 whole entry): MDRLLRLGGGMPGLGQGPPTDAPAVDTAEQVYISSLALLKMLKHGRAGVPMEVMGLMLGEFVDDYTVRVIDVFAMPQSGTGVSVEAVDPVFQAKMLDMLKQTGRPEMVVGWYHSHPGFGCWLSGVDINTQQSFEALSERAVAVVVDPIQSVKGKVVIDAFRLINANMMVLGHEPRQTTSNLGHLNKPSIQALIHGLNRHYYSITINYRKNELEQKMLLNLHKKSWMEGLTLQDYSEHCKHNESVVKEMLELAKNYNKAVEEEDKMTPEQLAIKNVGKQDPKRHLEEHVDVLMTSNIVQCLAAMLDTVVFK

Prothrombin = Prothrombin (Bos taurus, UniProt P00735); test: thrombin inhibition, dose response, biochemical, fluorescence polarization, uHTS hits (AID 602369); type: functional
[8] = inhibitors of intracellular T. cruzi replication, confirmation, NIH3T3 host cells, beta-gal luminescence (AID 2044); type: functional, cell-based;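 also: intracellular parasites grown in NIH/3T3 mouse fibroblasts as host cells; luminescent beta-galactosidase reporter signal from transgenic T. cruzi replicating inside host cells; inhibitors lower the luminescence signal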
[9] = cytotoxicity toward NIH3T3 fibroblasts, dose response, counter-screen, cell-based, ATP luminescence, mouse fibroblasts (AID 2010); type: functional;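 also: cells exposed to compound for about 90 hours before reading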
[10] = target: T6, Long-chain-fatty-acid--AMP ligase FadD28 (Mycobacterium tuberculosis, UniProt P9WQ59); test: Fluorescence polarization aasay to screen for inhibitors that compete for the binding of FadD28 to a bisubstrate Measured in Biochemical System Using Plate Reader - 2147-01_Inhibitor_Dose_CherryPick_Activity.; type: functional, Mycobacterium tuberculosis H37Rv
T6 sequence (P9WQ59 whole entry): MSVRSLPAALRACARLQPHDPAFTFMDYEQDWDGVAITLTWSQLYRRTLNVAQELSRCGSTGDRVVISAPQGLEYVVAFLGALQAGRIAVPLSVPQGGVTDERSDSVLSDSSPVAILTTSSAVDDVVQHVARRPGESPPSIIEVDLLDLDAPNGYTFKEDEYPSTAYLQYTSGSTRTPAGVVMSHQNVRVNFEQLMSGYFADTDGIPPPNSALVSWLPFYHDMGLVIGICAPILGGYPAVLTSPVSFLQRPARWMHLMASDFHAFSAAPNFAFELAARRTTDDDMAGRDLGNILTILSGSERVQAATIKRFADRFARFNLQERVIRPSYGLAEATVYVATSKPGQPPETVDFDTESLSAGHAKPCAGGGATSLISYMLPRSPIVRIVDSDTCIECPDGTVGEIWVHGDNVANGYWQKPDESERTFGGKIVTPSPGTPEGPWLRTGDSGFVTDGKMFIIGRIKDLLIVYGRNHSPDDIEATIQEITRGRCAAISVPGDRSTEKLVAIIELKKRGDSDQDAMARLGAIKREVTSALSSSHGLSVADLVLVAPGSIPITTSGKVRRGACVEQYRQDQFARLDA

[11] = target: T7, Adenosylmethionine-8-amino-7-oxononanoate aminotransferase (Mycobacterium tuberculosis, UniProt P9WQ81); test: Mycobacterium tuberculosis BioA enzyme inhibitor Measured in Biochemical System Using Plate Reader - 2163-02_Inhibitor_Dose_CherryPick_Activity.; type: functional, Mycobacterium tuberculosis UT205
T7 sequence (P9WQ81 whole entry): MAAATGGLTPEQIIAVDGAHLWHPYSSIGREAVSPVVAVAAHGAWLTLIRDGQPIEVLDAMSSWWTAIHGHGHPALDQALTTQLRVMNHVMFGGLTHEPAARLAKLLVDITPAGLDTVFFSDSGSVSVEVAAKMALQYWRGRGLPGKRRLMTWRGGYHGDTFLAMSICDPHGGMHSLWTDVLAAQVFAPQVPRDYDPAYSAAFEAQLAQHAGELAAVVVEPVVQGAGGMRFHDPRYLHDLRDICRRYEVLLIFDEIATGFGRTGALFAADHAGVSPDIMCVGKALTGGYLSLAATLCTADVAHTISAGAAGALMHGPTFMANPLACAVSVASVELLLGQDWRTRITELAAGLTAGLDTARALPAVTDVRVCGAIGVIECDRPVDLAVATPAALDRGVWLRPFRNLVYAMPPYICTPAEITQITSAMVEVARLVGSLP

Beta Lactamase = Beta Lactamase (Pseudomonas aeruginosa, UniProt Q932Y6); test: beta-lactamase reporter inhibitor potency, dose response, artefact control for NOD2-RIPK2 interaction inhibitor project, BLA reporter cells, FRET fluorescence (AID 651552); type: functional, cell-based
Sequence of Beta Lactamase (Q932Y6 whole entry, the tested form may be a part): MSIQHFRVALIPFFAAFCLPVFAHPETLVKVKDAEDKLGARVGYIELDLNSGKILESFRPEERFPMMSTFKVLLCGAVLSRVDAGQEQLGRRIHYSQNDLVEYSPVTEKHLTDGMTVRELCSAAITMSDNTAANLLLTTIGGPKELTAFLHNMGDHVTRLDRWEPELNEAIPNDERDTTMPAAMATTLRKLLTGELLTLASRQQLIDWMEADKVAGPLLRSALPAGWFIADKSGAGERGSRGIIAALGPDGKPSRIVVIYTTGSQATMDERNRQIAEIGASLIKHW

[12] = Fluorescence-based cell-based high throughput dose response assay for inhibitors of the interaction of nucleotide-binding oligomerization domain containing 2 (NOD2) and the receptor-interacting serine-threonine kinase 2 (RIPK2).; type: functional; settings: Homo sapiens
[13] = target: T8, Carboxy-terminal domain RNA polymerase II polypeptide A small phosphatase 1 (Homo sapiens, UniProt Q9GZU7); test: inhibitors of CTDSP1, concentration-response testing, biochemical assay, absorbance-based, actives from ultra-high-throughput screening (AID 540297); type: functional
T8 sequence (Q9GZU7 whole entry): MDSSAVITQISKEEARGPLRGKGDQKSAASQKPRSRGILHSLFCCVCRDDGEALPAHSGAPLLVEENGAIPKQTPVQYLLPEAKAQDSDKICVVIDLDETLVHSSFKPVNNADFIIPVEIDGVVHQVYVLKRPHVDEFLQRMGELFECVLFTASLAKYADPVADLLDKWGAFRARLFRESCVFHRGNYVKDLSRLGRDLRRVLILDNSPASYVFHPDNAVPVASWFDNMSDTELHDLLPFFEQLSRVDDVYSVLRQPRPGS

SMILES: O=[N+]([O-])c1ccc(N/N=N/c2ccccc2)cc1
- IC50 [1]: 9.64 µM (active)
- IC50 [2]: 75.3 µM (active)
- IC50 (Caspase-3): 45 µM (active)
- IC50 [3]: 46.5 µM (active)

SMILES: N=C(N)NCCCS(=O)(=O)Nc1ccc(Nc2c3ccccc3nc3cc([N+](=O)[O-])ccc23)cc1
- IC50 [4]: 57 µM (inactive)
- IC50 [5]: 6.83 µM (active)

SMILES: C=CCn1cc(/C=N/NC(=O)COc2cccc3cccnc23)c2ccccc21
- IC50 [6]: > 100 µM (inactive)
- IC50 [7]: 27.8 µM (active)
- IC50 (Prothrombin): 39 µM (active)

SMILES: C/N=c1\scc(-c2cc(OC)ccc2OC)n1/N=C/c1c(C)[nH]c2ccccc12
- EC50 [8]: 1.64 µM (active)
- EC50 [9]: > 60 µM (not active)
- IC50 [6]: > 100 µM (inactive)
- IC50 [7]: 23.8 µM (active)
- IC50 (Prothrombin): 21.1 µM (active)

SMILES: O=C(O)C(c1ccccc1)N1C(=O)/C(=C\c2ccc(-c3ccccc3Cl)o2)SC1=S (stereo not given)
- AC50 [10]: 15.6 µM (active)
- IC50 [5]: 4.27 µM (active)

SMILES: O=C(Nc1ncc2c(n1)CC(c1ccccc1)CC2=O)c1ccco1 (stereo not given)
- AC50 [11]: 0.201 µM (active)

SMILES: CCOC(=O)c1ccc(Nc2cnc3ccccc3n2)cc1
- IC50 [1]: 6.72 µM (active)
- IC50 [2]: > 100 µM (inactive)
- IC50 (Caspase-3): 64.6 µM (active)
- IC50 [3]: > 100 µM (inactive)

SMILES: Cc1ccsc1/C=N/n1c(S)nnc1-c1cc(-c2ccccc2)[nH]n1
- IC50 [6]: > 100 µM (inactive)
- IC50 [7]: 21.1 µM (active)
- IC50 (Prothrombin): 77.2 µM (active)

SMILES: O=C(CN1CCN(S(=O)(=O)c2ccc(Br)cc2)CC1)N/N=C/c1ccc(Cl)c([N+](=O)[O-])c1
- IC50 (Beta Lactamase): 48.7 µM (inactive)
- IC50 [12]: 1.83 µM (active)

SMILES: O=C(NCc1cccc(CNC(=O)C(=O)NCc2ccco2)c1)C(=O)NCc1ccco1
- IC50 [4]: 6.32 µM (active)
- IC50 [13]: > 80 µM (inactive)

SMILES: COc1cc(-c2nnc(S)n2-c2cccc(C(F)(F)F)c2)cc(OC)c1OC
- AC50 [11]: 10.6 µM (active)

SMILES: O=C(Nc1ccc(Cl)c(-c2nc3ccccc3[nH]2)c1)c1cccnc1
- AC50 [11]: 0.788 µM (active)
